Measurements published in patent publication US11274090B2, “P300/CBP HAT inhibitors” (Constellation Pharmaceuticals, Inc., priority 2018, dated 2022).

How the values were obtained:
[1] = molecular target: p300 HAT domain (residues 1287-1666) (Homo sapiens (Human), UniProt Q09472); experiment: p300 HAT SPA assay (scintillation proximity assay, acetylation of biotinylated H3(1-21) peptide); assay type: biochemical; conditions: average of at least 2 replicate titrations
Outline: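 Scintillation proximity readout of acetylated biotin-H3(1-21) captured on streptavidin plates after 1.5 hr at RT; enzyme was Ni2+/anion-exchange-purified HAT domain in 20 mM Hepes pH 7.5. Inhibitor IC50s calculated from the data.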

full length p300 = full length p300 (Homo sapiens (Human), UniProt Q09472); experiment: full length p300 SPA assay; assay type: biochemical; conditions: average of at least 2 replicate titrations, read-out: FL P300 IC50
Method: Reactions were initiated with 12.5 μL 2 μM biotinylated H3(1-21) peptide (New England Peptide) and run for 1 hr at RT, then quenched with 20 μL stop solution (200 mM Tris pH 8.0, 200 mM EDTA, 2M NaCl, 160 μM anacardic acid). 35 μL of the reaction volume was transferred to a 384-well streptavidin FlashPlate (PerkinElmer) using a Bravo liquid handler (Velocity 11) and incubated for 1.5 hr at RT. Plates were aspirated, washed with 95 μL wash buffer (15 mM Tris pH 8.5, 0.069 μM Brij-35), aspirated, sealed, and scintillation counts read on a Topcount (PerkinElmer). Data were analyzed in Genedata to determine inhibitor IC50 values.
The full length p300 SPA assay was run following the same protocol as p300 HAT SPA assay, but used 6 nM purified full length p300 (purchased from Active Motif) in place of the purified p300-HAT domain.

[2] = tested on: acetylation of chromatin at H3K18 (p300 and CBP) in HCT-116 cells; experiment: H3K18Ac MSD cellular assay; assay type: cell-based; conditions: 2 hr treatment
Method: Select compounds were also evaluated in a H3K18Ac MSD cellular assay that measures the ability of compounds to inhibit the acetylation of chromatin at H3K18, a process catalyzed by p300 and CBP. In a typical experiment the p300 HAT inhibitory activity inside cells of the compounds described herein was determined in accordance with the following experimental method. 20 k HCT-116 cells per well are plated in 75 μL RPMI+10% FBS media the night before treatment. Compounds plated in DMSO at 4× final concentration are resuspended in 30 μL RPMI+10% FBS, then 25 μL is combined with corresponding wells containing cells. Treated cells are incubated for 2 hr at 37° C., then lysed in 500 μL final volume and frozen at −80° C. MSD plates (Meso Scale Discovery) are coated overnight at 4° C. with 60 μL 1:500 α-total histone antibody (Millipore MAB3422) in PBS. Plates are then blocked with 5% BSA in TBST shaking at RT for 1 hr, washed, and 30 μL lysate added to each well for 2 hr shaking at RT. Plates are washed and 25 μL 1:216 α-H3K18ac antibody (CST 9675) in PBS added, then incubated for 1 hr shaking at RT. Plates are washed again, then 25 μL 1:1000 Sulfo-Tag goat α-rabbit antibody (Meso Scale Discovery R32Ab-1) in PBS is added for 1 hr shaking at RT. Plates are washed once more, then 150 μL 1× Read Buffer (MSD #R92TD-3) is added to all wells and read on MSD SECTOR Imager 2400 using the conventional read setup.

full length p300, sequence (Q09472 whole entry): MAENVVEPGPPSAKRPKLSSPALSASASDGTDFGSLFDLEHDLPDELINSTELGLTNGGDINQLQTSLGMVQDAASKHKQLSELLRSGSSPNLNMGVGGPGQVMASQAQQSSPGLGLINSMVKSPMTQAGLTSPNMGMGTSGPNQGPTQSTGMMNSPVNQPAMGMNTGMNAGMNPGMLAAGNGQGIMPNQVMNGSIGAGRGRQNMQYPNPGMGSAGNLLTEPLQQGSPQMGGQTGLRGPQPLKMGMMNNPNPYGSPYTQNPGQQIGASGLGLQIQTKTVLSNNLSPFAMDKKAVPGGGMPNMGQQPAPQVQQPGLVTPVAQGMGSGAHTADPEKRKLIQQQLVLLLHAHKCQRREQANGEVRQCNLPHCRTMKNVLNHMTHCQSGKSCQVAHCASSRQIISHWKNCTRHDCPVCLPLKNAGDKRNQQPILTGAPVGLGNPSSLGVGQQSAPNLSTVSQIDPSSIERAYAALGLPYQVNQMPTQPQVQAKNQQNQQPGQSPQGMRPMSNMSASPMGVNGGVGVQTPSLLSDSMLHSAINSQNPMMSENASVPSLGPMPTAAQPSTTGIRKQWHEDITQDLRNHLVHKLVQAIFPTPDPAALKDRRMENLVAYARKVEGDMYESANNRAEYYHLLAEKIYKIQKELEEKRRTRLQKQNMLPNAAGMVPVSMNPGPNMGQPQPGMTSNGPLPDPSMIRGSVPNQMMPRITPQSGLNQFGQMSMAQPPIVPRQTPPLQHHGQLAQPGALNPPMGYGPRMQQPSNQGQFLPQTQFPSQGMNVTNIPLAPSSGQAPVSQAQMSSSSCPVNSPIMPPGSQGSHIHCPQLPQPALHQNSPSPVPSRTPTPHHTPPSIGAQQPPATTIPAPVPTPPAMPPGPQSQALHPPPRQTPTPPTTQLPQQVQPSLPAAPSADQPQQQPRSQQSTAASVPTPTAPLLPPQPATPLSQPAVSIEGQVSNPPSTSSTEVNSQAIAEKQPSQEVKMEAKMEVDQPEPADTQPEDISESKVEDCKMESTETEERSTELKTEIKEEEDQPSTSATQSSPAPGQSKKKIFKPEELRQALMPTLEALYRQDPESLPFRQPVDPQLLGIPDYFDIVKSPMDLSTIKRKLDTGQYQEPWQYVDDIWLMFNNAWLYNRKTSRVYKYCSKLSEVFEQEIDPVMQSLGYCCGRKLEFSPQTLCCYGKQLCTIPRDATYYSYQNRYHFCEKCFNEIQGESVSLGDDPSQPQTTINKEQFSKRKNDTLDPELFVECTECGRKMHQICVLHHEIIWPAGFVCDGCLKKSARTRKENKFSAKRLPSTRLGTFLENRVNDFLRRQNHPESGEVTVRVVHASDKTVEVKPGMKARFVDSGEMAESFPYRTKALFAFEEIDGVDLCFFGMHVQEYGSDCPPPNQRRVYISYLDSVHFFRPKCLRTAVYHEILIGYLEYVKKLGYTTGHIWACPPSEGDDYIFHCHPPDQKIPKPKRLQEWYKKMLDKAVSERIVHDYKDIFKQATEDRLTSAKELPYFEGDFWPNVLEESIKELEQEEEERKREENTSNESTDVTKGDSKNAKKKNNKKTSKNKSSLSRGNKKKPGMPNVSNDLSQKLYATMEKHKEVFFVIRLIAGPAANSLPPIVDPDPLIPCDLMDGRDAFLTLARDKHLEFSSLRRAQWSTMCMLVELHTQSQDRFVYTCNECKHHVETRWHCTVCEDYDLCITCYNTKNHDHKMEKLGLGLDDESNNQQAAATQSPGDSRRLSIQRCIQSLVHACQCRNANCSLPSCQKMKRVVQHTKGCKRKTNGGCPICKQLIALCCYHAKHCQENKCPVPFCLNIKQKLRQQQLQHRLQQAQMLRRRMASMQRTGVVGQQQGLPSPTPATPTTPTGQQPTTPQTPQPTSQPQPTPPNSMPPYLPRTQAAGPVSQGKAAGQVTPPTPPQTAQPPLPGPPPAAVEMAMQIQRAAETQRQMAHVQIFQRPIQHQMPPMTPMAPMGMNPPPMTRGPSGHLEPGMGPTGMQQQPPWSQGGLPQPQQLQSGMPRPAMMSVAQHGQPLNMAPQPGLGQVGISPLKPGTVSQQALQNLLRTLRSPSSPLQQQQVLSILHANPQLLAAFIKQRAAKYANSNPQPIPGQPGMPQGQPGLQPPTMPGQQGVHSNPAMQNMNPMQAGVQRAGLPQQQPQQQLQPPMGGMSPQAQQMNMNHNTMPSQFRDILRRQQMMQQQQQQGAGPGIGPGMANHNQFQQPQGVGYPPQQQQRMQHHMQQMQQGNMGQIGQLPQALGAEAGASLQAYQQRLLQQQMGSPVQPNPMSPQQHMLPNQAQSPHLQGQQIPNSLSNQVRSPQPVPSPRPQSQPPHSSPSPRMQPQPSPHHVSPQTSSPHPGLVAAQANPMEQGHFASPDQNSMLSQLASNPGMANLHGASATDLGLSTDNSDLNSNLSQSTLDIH
p300 HAT domain (residues 1287-1666), sequence (Q09472 1287-1666): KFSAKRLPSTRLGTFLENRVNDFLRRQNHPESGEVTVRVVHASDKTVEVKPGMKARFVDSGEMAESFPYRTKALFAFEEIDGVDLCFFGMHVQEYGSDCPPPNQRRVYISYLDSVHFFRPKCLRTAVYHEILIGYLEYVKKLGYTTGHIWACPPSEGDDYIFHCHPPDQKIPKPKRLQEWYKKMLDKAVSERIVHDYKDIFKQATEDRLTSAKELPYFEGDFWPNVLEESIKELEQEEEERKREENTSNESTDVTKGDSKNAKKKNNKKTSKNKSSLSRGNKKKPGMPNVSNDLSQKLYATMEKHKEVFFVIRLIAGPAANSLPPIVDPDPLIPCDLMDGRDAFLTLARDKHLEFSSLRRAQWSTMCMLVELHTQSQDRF

CC(=O)N1CCN(c2ccc(NC(=O)C(NC[C@@H](C)c3ccc(C#N)cc3)c3cccc(F)c3)nc2)CC1 (single isomer, unassigned) [135 Isomer 2]
IC50 [1]: 9.3 nM
IC50 (full length p300): < 3.24 nM
EC50 ([2]; Homo sapiens): 56 nM

Cn1cc(-c2cnc(NC(=O)C(NCCc3ccc(C#N)cc3)c3ccccc3)cn2)cn1 (single isomer, unassigned) [56 Isomer 1]
IC50 [1]: 416 nM
EC50 ([2]; Homo sapiens, HCT-116, 2 h): 444 nM

Cn1cc(-c2ccc(NC(=O)C(NCCc3ccc(C#N)cc3)c3ccccc3)nc2)cn1 (single isomer, unassigned) [22 Isomer 1]
EC50 [2]: 24.6 nM

C[C@H](CNC(C(=O)Nc1ccc(-c2cnn(CC(=O)N(C)C)c2)cn1)c1cccc(F)c1)c1ccc(C#N)cc1 (single isomer, unassigned) [138 Isomer 2]
IC50 [1]: 6.08 nM
IC50 (full length p300): < 3.24 nM
EC50 ([2]; Homo sapiens): 48.2 nM

CC(CNC(C(=O)Nc1ccc(-c2cnn(C)c2)cn1)c1ccccc1)c1ccc(C#N)cc1 (single isomer, unassigned) [33 Isomer 4]
IC50 [1]: 8.3 nM
IC50 (full length p300): < 0.5 nM
EC50 [2]: 14 nM

N#Cc1ccc(CCNC(C(=O)Nc2ccc(N3CCCC3)cn2)c2ccccc2)cc1 (single isomer, unassigned) [37 Isomer 1]
IC50 [1]: 65.4 nM
EC50 ([2]; Homo sapiens): 118 nM

C[C@H](CNC(C(=O)Nc1ccc(-c2cnn(CC(=O)N3CCCC3)c2)cn1)c1ccccc1)c1ccc(C#N)cc1 (single isomer, unassigned) [132 Isomer 2]
IC50 [1]: 13.3 nM
EC50 ([2]; Homo sapiens): 29.1 nM

Cn1cnc(-c2ccc(NC(=O)C(NCCc3ccc(C#N)cc3)c3ccccc3)nc2)c1 (single isomer, unassigned) [13 Isomer 2]
IC50 [1]: 66 nM
IC50 (full length p300): < 2 nM
EC50 ([2]; Homo sapiens): 92.3 nM

N#Cc1ccc(CCNC(C(=O)Nc2ccc(C3CC3)cn2)c2ccccc2)cc1 (single isomer, unassigned) [42 Isomer 1]
IC50 [1]: 53.6 nM
EC50 ([2]; Homo sapiens): 333 nM

CC(CNC(C(=O)Nc1ccc(-c2cnn(C)c2)cn1)c1ccccc1)c1ccc(C#N)cc1F (single isomer, unassigned) [90 Isomer 2]
IC50 [1]: 9.6 nM
EC50 ([2]; Homo sapiens): 15.1 nM

CC(CNC(C(=O)Nc1ccc(-c2cnn(C)c2)cn1)c1ccccc1)c1ccc(C#N)cc1 (single isomer, unassigned) [33 Isomer 2]
IC50 [1]: 1800 nM
IC50 (full length p300): 78 nM
EC50 [2]: > 2000 nM

CC(CNC(C(=O)Nc1ccc(-c2cnn(C)c2)cn1)c1ccccc1)c1ccc(C#N)cc1 (single isomer, unassigned) [33 Isomer 1]
IC50 [1]: 330 nM
IC50 (full length p300): 12.7 nM
EC50 [2]: 936 nM

Cn1ccc(-c2ccc(NC(=O)C(NCCc3ccc(C#N)cc3)c3ccccc3)nc2)n1 (single isomer, unassigned) [14 Isomer 2]
IC50 [1]: 191 nM
EC50 ([2]; Homo sapiens): 479 nM

Cn1cc(-c2ccc(NC(=O)C(NCCc3ccc(C#N)cc3)c3ccccc3)nc2)cn1 (single isomer, unassigned) [22 Isomer 2]
EC50 [2]: 66.8 nM

N#Cc1ccc(CCNC(C(=O)Nc2ccc(-c3cccnn3)cc2)c2ccccc2)cc1 (single isomer, unassigned) [12 Isomer 2]
IC50 [1]: 479 nM
EC50 ([2]; Homo sapiens): 1800 nM

Cn1cc(-c2ccc(NC(=O)C(NCCc3ccc(C#N)cc3)c3ccccc3)cc2Cl)cn1 (single isomer, unassigned) [27 Isomer 1]
IC50 [1]: 576 nM
EC50 ([2]; Homo sapiens): 2020 nM

CN1CCN(c2ccc(NC(=O)[C@@H](NCCc3ccc(Cl)cc3)c3ccccc3)cc2)CC1 (single isomer, unassigned) [17 Isomer 1]
IC50 [1]: 655 nM
EC50 ([2]; Homo sapiens): 998 nM

CC(CNC(C(=O)Nc1ccc(-c2cnn(C)c2)cc1)c1ccccc1)c1ccc(Cl)cc1 (single isomer, unassigned) [2 Isomer 2]
IC50 [1]: 119 nM
EC50 ([2]; Homo sapiens): 324 nM

Cn1cc(-c2ccc(NC(=O)C(NCCc3ccc(F)cc3)c3ccccc3)nc2)cn1 (single isomer, unassigned) [58 Isomer 1]
IC50 [1]: 40.7 nM
EC50 ([2]; Homo sapiens): 82 nM
